In brackets after ≈: the same amount, converted by molar mass.
Tests used:
Assay type in all cases: functional
Enterococcus faecalis [1] = assay: Antimicrobial activity against vancomycin-susceptible Enterococcus faecalis clinical isolates by broth microdilution method
Enterococcus faecalis [2] = assay: Antimicrobial activity against Enterococcus faecalis expressing VanB gene clinical isolates assessed as percent susceptible isolates by broth microdilution method
Enterococcus faecium [3] = assay: Antimicrobial activity against Enterococcus faecium expressing VanA gene clinical isolates assessed as percent susceptible isolates by broth microdilution method
[4] = system: Staphylococcus epidermidis; assay: Antimicrobial activity against Staphylococcus epidermidis clinical isolates assessed as percent susceptible isolates by broth microdilution method
Enterococcus faecalis [5] = assay: Antimicrobial activity against vancomycin-nonsusceptible Enterococcus faecalis clinical isolates assessed as percent susceptible isolates by broth microdilution method
Enterococcus faecalis [6] = assay: Antimicrobial activity against Enterococcus faecalis expressing VanA gene clinical isolates assessed as percent susceptible isolates by broth microdilution method
Enterococcus faecalis [7] = assay: Antimicrobial activity against Enterococcus faecalis clinical isolates assessed as percent susceptible isolates by broth microdilution method
[8] = system: Staphylococcus epidermidis; assay: Antimicrobial activity against oxacillin-susceptible Staphylococcus epidermidis clinical isolates by broth microdilution method
Enterococcus faecium [9] = assay: Antimicrobial activity against Enterococcus faecium expressing VanA gene clinical isolates by broth microdilution method
Enterococcus faecium [10] = assay: Antimicrobial activity against Enterococcus faecium clinical isolates assessed as percent susceptible isolates by broth microdilution method
[11] = system: Staphylococcus epidermidis; assay: Antimicrobial activity against Staphylococcus epidermidis clinical isolates by broth microdilution method
Enterococcus faecalis [12] = assay: Antimicrobial activity against Enterococcus faecalis clinical isolates by broth microdilution method
Enterococcus faecium [13] = assay: Antimicrobial activity against Enterococcus faecium clinical isolates by broth microdilution method
Enterococcus faecium [14] = assay: Antimicrobial activity against Enterococcus faecium expressing VanB gene clinical isolates assessed as percent susceptible isolates by broth microdilution method
[15] = system: Staphylococcus epidermidis; assay: Antimicrobial activity against oxacillin-susceptible Staphylococcus epidermidis clinical isolates assessed as percent susceptible isolates by broth microdilution method
[16] = system: Staphylococcus epidermidis; assay: Antimicrobial activity against oxacillin-resistant Staphylococcus epidermidis clinical isolates assessed as percent susceptible isolates by broth microdilution method
Enterococcus faecalis [17] = assay: Antimicrobial activity against Enterococcus faecalis expressing VanB gene clinical isolates by broth microdilution method
Enterococcus faecium [18] = assay: Antimicrobial activity against vancomycin-susceptible Enterococcus faecium clinical isolates by broth microdilution method
[19] = system: Staphylococcus haemolyticus; assay: Antimicrobial activity against oxacillin-resistant Staphylococcus haemolyticus clinical isolates by broth microdilution method
[20] = system: Staphylococcus haemolyticus; assay: Antimicrobial activity against Staphylococcus haemolyticus clinical isolates by broth microdilution method
Staphylococcus aureus [21] = assay: Antimicrobial activity against Staphylococcus aureus clinical isolates by broth microdilution method
Enterococcus faecalis [22] = assay: Antimicrobial activity against vancomycin-susceptible Enterococcus faecalis clinical isolates assessed as percent susceptible isolates by broth microdilution method
Staphylococcus aureus [23] = assay: Antimicrobial activity against oxacillin-susceptible Staphylococcus aureus clinical isolates by broth microdilution method
Enterococcus faecium [24] = assay: Antimicrobial activity against Enterococcus faecium expressing VanB gene clinical isolates by broth microdilution method
Enterococcus faecium [25] = assay: Antimicrobial activity against vancomycin-nonsusceptible Enterococcus faecium clinical isolates by broth microdilution method
Enterococcus faecium [26] = assay: Antimicrobial activity against vancomycin-susceptible Enterococcus faecium clinical isolates assessed as percent susceptible isolates by broth microdilution method
Staphylococcus aureus [27] = assay: Antimicrobial activity against oxacillin-susceptible Staphylococcus aureus clinical isolates assessed as percent susceptible isolates by broth microdilution method
[28] = system: Staphylococcus haemolyticus; assay: Antimicrobial activity against oxacillin-susceptible Staphylococcus haemolyticus clinical isolates by broth microdilution method
Staphylococcus aureus [29] = assay: Antimicrobial activity against oxacillin-resistant Staphylococcus aureus clinical isolates by broth microdilution method
Staphylococcus aureus [30] = assay: Antimicrobial activity against Staphylococcus aureus clinical isolates assessed as percent susceptible isolates by broth microdilution method
[31] = system: Staphylococcus haemolyticus; assay: Antimicrobial activity against oxacillin-susceptible Staphylococcus haemolyticus clinical isolates assessed as percent susceptible isolates by broth microdilution method
Enterococcus faecalis [32] = assay: Antimicrobial activity against vancomycin-nonsusceptible Enterococcus faecalis clinical isolates by broth microdilution method
Enterococcus faecalis [33] = assay: Antimicrobial activity against Enterococcus faecalis expressing VanA gene clinical isolates by broth microdilution method
[34] = system: Staphylococcus epidermidis; assay: Antimicrobial activity against oxacillin-resistant Staphylococcus epidermidis clinical isolates by broth microdilution method
Enterococcus faecium [35] = assay: Antimicrobial activity against vancomycin-nonsusceptible Enterococcus faecium clinical isolates assessed as percent susceptible isolates by broth microdilution method
[36] = system: Staphylococcus haemolyticus; assay: Antimicrobial activity against Staphylococcus haemolyticus clinical isolates assessed as percent susceptible isolates by broth microdilution method
Enterococcus faecalis [37] = assay: Antimicrobial activity against Enterococcus faecalis expressing VanB gene clinical isolates assessed as resistant isolates by broth microdilution method
Enterococcus faecalis [38] = assay: Antimicrobial activity against Enterococcus faecalis expressing VanA gene clinical isolates assessed as resistant isolates by broth microdilution method
Enterococcus faecium [39] = assay: Antimicrobial activity against Enterococcus faecium expressing VanB gene clinical isolates assessed as resistant isolates by broth microdilution method
Enterococcus faecalis [40] = assay: Antimicrobial activity against vancomycin-nonsusceptible Enterococcus faecalis clinical isolates assessed as resistant isolates by broth microdilution method
Enterococcus faecalis [41] = assay: Antimicrobial activity against vancomycin-susceptible Enterococcus faecalis clinical isolates assessed as resistant isolates by broth microdilution method
Enterococcus faecium [42] = assay: Antimicrobial activity against vancomycin-nonsusceptible Enterococcus faecium clinical isolates assessed as resistant isolates by broth microdilution method
Enterococcus faecium [43] = assay: Antimicrobial activity against Enterococcus faecium clinical isolates assessed as resistant isolates by broth microdilution method
Enterococcus faecium [44] = assay: Antimicrobial activity against vancomycin-susceptible Enterococcus faecium clinical isolates assessed as resistant isolates by broth microdilution method
[45] = system: Staphylococcus haemolyticus; assay: Antimicrobial activity against oxacillin-resistant Staphylococcus haemolyticus clinical isolates assessed as percent susceptible isolates by broth microdilution method
Enterococcus faecalis [46] = assay: Antimicrobial activity against Enterococcus faecalis clinical isolates assessed as resistant isolates by broth microdilution method
Enterococcus faecium [47] = assay: Antimicrobial activity against Enterococcus faecium expressing VanA gene clinical isolates assessed as resistant isolates by broth microdilution method
Staphylococcus aureus [48] = assay: Antimicrobial activity against oxacillin-susceptible Staphylococcus aureus clinical isolates assessed as resistant isolates by broth microdilution method
[49] = system: Staphylococcus haemolyticus; assay: Antimicrobial activity against Staphylococcus haemolyticus clinical isolates assessed as resistant isolates by broth microdilution method
Staphylococcus aureus [50] = assay: Antimicrobial activity against Staphylococcus aureus clinical isolates assessed as resistant isolates by broth microdilution method
[51] = system: Staphylococcus epidermidis; assay: Antimicrobial activity against oxacillin-susceptible Staphylococcus epidermidis clinical isolates assessed as resistant isolates by broth microdilution method
[52] = system: Staphylococcus epidermidis; assay: Antimicrobial activity against Staphylococcus epidermidis clinical isolates assessed as resistant isolates by broth microdilution method
[53] = system: Staphylococcus haemolyticus; assay: Antimicrobial activity against oxacillin-susceptible Staphylococcus haemolyticus clinical isolates assessed as resistant isolates by broth microdilution method
Staphylococcus aureus [54] = assay: Antimicrobial activity against oxacillin-resistant Staphylococcus aureus clinical isolates assessed as resistant isolates by broth microdilution method
Staphylococcus aureus [55] = assay: Antimicrobial activity against oxacillin-resistant Staphylococcus aureus clinical isolates assessed as percent susceptible isolates by broth microdilution method
[56] = system: Staphylococcus haemolyticus; assay: Antimicrobial activity against oxacillin-resistant Staphylococcus haemolyticus clinical isolates assessed as resistant isolates by broth microdilution method
[57] = system: Staphylococcus epidermidis; assay: Antimicrobial activity against oxacillin-resistant Staphylococcus epidermidis clinical isolates assessed as resistant isolates by broth microdilution method

Compound: CCCCCCCCCC(=O)N[C@@H](Cc1c[nH]c2ccccc12)C(=O)N[C@H](CC(N)=O)C(=O)N[C@@H](CC(=O)O)C(=O)N[C@@H]1C(=O)NCC(=O)N[C@@H](CCCN)C(=O)N[C@@H](CC(=O)O)C(=O)N[C@H](C)C(=O)N[C@@H](CC(=O)O)C(=O)NCC(=O)N[C@H](CO)C(=O)N[C@@H]([C@H](C)CC(=O)O)C(=O)N[C@@H](CC(=O)c2ccccc2N)C(=O)O[C@@H]1C
- MIC90 (Enterococcus faecalis [1]): 2 µg/mL (≈ 1.23 µM)
- Activity (Enterococcus faecalis [2]): 100%
- Activity (Enterococcus faecium [3]): 98.8%
- Activity [4]: 99.9%
- Activity (Enterococcus faecalis [5]): 98.9%
- Activity (Enterococcus faecalis [6]): 98.5%
- Activity (Enterococcus faecalis [7]): 99.9%
- MIC90 [8]: 0.5 µg/mL (≈ 0.309 µM)
- MIC90 (Enterococcus faecium [9]): 4 µg/mL (≈ 2.47 µM)
- Activity (Enterococcus faecium [10]): 98.4%
- MIC90 [11]: 0.5 µg/mL (≈ 0.309 µM)
- MIC90 (Enterococcus faecalis [12]): 2 µg/mL (≈ 1.23 µM)
- MIC90 (Enterococcus faecium [13]): 4 µg/mL (≈ 2.47 µM)
- Activity (Enterococcus faecium [14]): 93.1%
- Activity [15]: 100%
- Activity [16]: 99.8%
- MIC90 (Enterococcus faecalis [17]): 2 µg/mL (≈ 1.23 µM)
- MIC90 (Enterococcus faecium [18]): 4 µg/mL (≈ 2.47 µM)
- MIC90 [19]: 0.5 µg/mL (≈ 0.309 µM)
- MIC90 [20]: 0.5 µg/mL (≈ 0.309 µM)
- MIC90 (Staphylococcus aureus [21]): 0.5 µg/mL (≈ 0.309 µM)
- Activity (Enterococcus faecalis [22]): 99.9%
- MIC90 (Staphylococcus aureus [23]): 0.5 µg/mL (≈ 0.309 µM)
- MIC90 (Enterococcus faecium [24]): 4 µg/mL (≈ 2.47 µM)
- MIC90 (Enterococcus faecium [25]): 4 µg/mL (≈ 2.47 µM)
- Activity (Enterococcus faecium [26]): 98.3%
- Activity (Staphylococcus aureus [27]): 99.9%
- MIC90 [28]: 0.5 µg/mL (≈ 0.309 µM)
- MIC90 (Staphylococcus aureus [29]): 0.5 µg/mL (≈ 0.309 µM)
- Activity (Staphylococcus aureus [30]): 99.9%
- Activity [31]: 100%
- MIC90 (Enterococcus faecalis [32]): 2 µg/mL (≈ 1.23 µM)
- MIC90 (Enterococcus faecalis [33]): 2 µg/mL (≈ 1.23 µM)
- MIC90 [34]: 0.5 µg/mL (≈ 0.309 µM)
- Activity (Enterococcus faecium [35]): 98.5%
- Activity [36]: 100%

Compound: CC(=O)NC[C@H]1CN(c2ccc(N3CCOCC3)c(F)c2)C(=O)O1 [LINEZOLID]
- MIC90 (Enterococcus faecalis [1]): 2 µg/mL (≈ 5.93 µM)
- Activity (Enterococcus faecalis [2]): 100%
- Activity (Enterococcus faecium [3]): 99.5%
- Activity (Enterococcus faecalis [37]): 0%
- Activity [4]: 99.4%
- Activity (Enterococcus faecalis [5]): 98.9%
- Activity (Enterococcus faecalis [6]): 98.5%
- Activity (Enterococcus faecalis [7]): 99.8%
- MIC90 [8]: 1 µg/mL (≈ 2.96 µM)
- MIC90 (Enterococcus faecium [9]): 2 µg/mL (≈ 5.93 µM)
- Activity (Enterococcus faecium [10]): 99.3%
- MIC90 [11]: 1 µg/mL (≈ 2.96 µM)
- MIC90 (Enterococcus faecalis [12]): 2 µg/mL (≈ 5.93 µM)
- MIC90 (Enterococcus faecium [13]): 2 µg/mL (≈ 5.93 µM)
- Activity (Enterococcus faecium [14]): 93.1%
- Activity [15]: 99.7%
- MIC90 (Enterococcus faecalis [17]): 2 µg/mL (≈ 5.93 µM)
- Activity (Enterococcus faecalis [38]): 1.5%
- Activity (Enterococcus faecium [39]): 3.4%
- Activity (Enterococcus faecalis [40]): 1.1%
- MIC90 (Enterococcus faecium [18]): 2 µg/mL (≈ 5.93 µM)
- MIC90 [19]: 1 µg/mL (≈ 2.96 µM)
- MIC90 [20]: 1 µg/mL (≈ 2.96 µM)
- MIC90 (Staphylococcus aureus [21]): 2 µg/mL (≈ 5.93 µM)
- Activity (Enterococcus faecalis [22]): 99.9%
- Activity (Enterococcus faecalis [41]): 0.1%
- MIC90 (Staphylococcus aureus [23]): 2 µg/mL (≈ 5.93 µM)
- Activity (Enterococcus faecium [42]): 0.6%
- MIC90 (Enterococcus faecium [24]): 2 µg/mL (≈ 5.93 µM)
- Activity (Enterococcus faecium [43]): 0.4%
- MIC90 (Enterococcus faecium [25]): 2 µg/mL (≈ 5.93 µM)
- Activity (Enterococcus faecium [26]): 99.4%
- Activity (Enterococcus faecium [44]): 0%
- Activity (Staphylococcus aureus [27]): 100%
- Activity [45]: 99%
- Activity (Enterococcus faecalis [46]): 0.2%
- MIC90 [28]: 1 µg/mL (≈ 2.96 µM)
- MIC90 (Staphylococcus aureus [29]): 2 µg/mL (≈ 5.93 µM)
- Activity (Staphylococcus aureus [30]): 100%
- Activity [31]: 100%
- MIC90 (Enterococcus faecalis [32]): 2 µg/mL (≈ 5.93 µM)
- MIC90 (Enterococcus faecalis [33]): 2 µg/mL (≈ 5.93 µM)
- MIC90 [34]: 1 µg/mL (≈ 2.96 µM)
- Activity (Enterococcus faecium [47]): 0.5%
- Activity (Enterococcus faecium [35]): 99.1%
- Activity [36]: 99.3%

Compound: Cc1onc(-c2ccccc2)c1C(=O)N[C@@H]1C(=O)N2[C@@H]1SC(C)(C)[C@@H]2C(=O)O [OXACILLIN]
- Percent of isolates resistant (Staphylococcus aureus [48]): 0%
- Activity [4]: 27.3%
- Resistant isolates [49]: 73.2%
- Percent resistant isolates (Staphylococcus aureus [50]): 53.8%
- Percent of isolates resistant [51]: 0%
- MIC90 [8]: 0.12 µg/mL (≈ 0.299 µM)
- MIC90 [11]: > 8 µg/mL
- Percent of isolates resistant [52]: 72.7%
- Activity [15]: 100%
- Activity [16]: 0%
- MIC90 [19]: > 8 µg/mL
- MIC90 [20]: > 8 µg/mL
- MIC90 (Staphylococcus aureus [21]): > 8 µg/mL
- MIC90 (Staphylococcus aureus [23]): 0.5 µg/mL (≈ 1.25 µM)
- Activity [53]: 0%
- Percent resistant isolates (Staphylococcus aureus [54]): 100%
- Activity (Staphylococcus aureus [55]): 0%
- Activity [56]: 100%
- Activity (Staphylococcus aureus [27]): 100%
- Activity [45]: 0%
- MIC90 [28]: 0.25 µg/mL (≈ 0.623 µM)
- MIC90 (Staphylococcus aureus [29]): > 8 µg/mL
- Activity (Staphylococcus aureus [30]): 46.2%
- Activity [31]: 100%
- MIC90 [34]: > 8 µg/mL
- Activity [36]: 26.8%
- Percent of isolates resistant [57]: 100%

Reference: ChEMBL document CHEMBL1649268, “Comparative in vitro activity profile of oritavancin against recent gram-positive clinical isolates” (2009)
